Measured values as given in US9326513B2, “Fungicidal compositions” (Syngenta Participations AG, priority 2011, dated 2016).
Like-named read-outs stand apart in the source and are kept apart here.

Assays:
Botrytis cinerea = Botrytis cinerea (gray mould), PDB microtiter plate, visual after 72 hrs; type: cell-based; settings: for inhibition at 0.625 ppm: rate 0.625 ppm
[1] = system: Monographella nivalis (syn. Microdochium nivale, Fusarium nivale); assay: Monographella nivalis (snow mould, foot rot of cereals), PDB microtiter plate, visual after 72 hrs; type: cell-based
[2] = system: Puccinia recondita f. sp. tritici; assay: Puccinia recondita f. sp. tritici / wheat / leaf disc preventative (brown rust); type: in vivo; settings: foliar, compared to untreated control leaf disks, read-out: disease control
From the text: Puccinia recondita f. sp. tritici/Wheat/Leaf Disc Preventative (Brown Rust) Wheat leaf segments cv. Kanzler were placed on agar in multiwell plates (24-well format) and sprayed with the formulated test compound diluted in water. The leaf disks were inoculated with a spore suspension of the fungus 1 day after application.

Pyrenophora teres = Pyrenophora teres / barley / leaf disc preventative (net blotch); type: in vivo; settings: foliar, compared to untreated control leaf disks, read-out: disease control
From the text: Pyrenophora teres/Barley/Leaf Disc Preventative (Net Blotch) Barley leaf segments cv. Hasso were placed on agar in a multiwell plate (24-well format) and sprayed with the formulated test compound diluted in water. The leaf segments were inoculated with a spore suspension of the fungus 2 days after application.

[3] = system: Puccinia recondita f. sp. tritici; assay: Puccinia recondita f. sp. tritici / wheat / leaf disc curative (brown rust); type: in vivo; settings: foliar, compared to untreated control leaf disks, read-out: disease control
Protocol: Puccinia recondita f. sp. tritici/Wheat/Leaf Disc Curative (Brown Rust) Wheat leaf segments cv. Kanzler are placed on agar in multiwell plates (24-well format). The leaf segments are inoculated with a spore suspension of the fungus. Plates were stored in darkness at 19° C. and 75% rh. The formulated test compound diluted in water was applied 1 day after inoculation.

[4] = system: Blumeria graminis f. sp. tritici (Erysiphe graminis f. sp. tritici); assay: Blumeria graminis f. sp. tritici / wheat / leaf disc preventative (powdery mildew on wheat); type: in vivo; settings: foliar, compared to untreated control leaf disks, read-out: disease control
Outline: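 Preventative leaf-disc test: compound (200 ppm) was sprayed onto cv. Kanzler wheat segments, which were dusted with conidia from infected plants 1 day after application. After incubation at 20° C and 60% rh, disease control relative to untreated segments was rated 6-8 days after application.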

[5] = Monographella nivalis, applied alone, 0.0625 ppm
[6] = Monographella nivalis, applied alone
[7] = applied alone, rate 0.15625 ppm
[8] = Monographella nivalis, applied alone, rate 0.3125 ppm
[9] = Monographella nivalis, applied alone, rate 0.625 ppm
[10] = Monographella nivalis, applied alone, rate 1.25 ppm
[11] = Monographella nivalis, applied alone, rate 2.5 ppm
[12] = Monographella nivalis, single compound, rate 5 ppm
[13] = Botrytis cinerea, alone, rate 1.25 ppm
[14] = Botrytis cinerea, alone, rate 2.5 ppm, read-out: Activity (%)

O=C(O)COc1ccc(Cl)cc1Cl [2,4-D]
0%: Activity (%) (Botrytis cinerea; alone, rate 2.5 ppm) | Activity (%) (Botrytis cinerea; alone, rate 5 ppm) | Activity (%) (Botrytis cinerea; alone, rate 10 ppm) | Activity (%) ([1]; applied alone, 0.625 ppm) | Activity (%) ([1]; applied alone, 1.25 ppm) | Activity (%) ([1]; applied alone, 2.5 ppm) | Activity (%) ([1]; applied alone, 5 ppm) | Activity (%) ([1]; applied alone, 10 ppm) | Activity (%) ([1]; applied alone, rate 0.3125 ppm) | Activity (%) ([1]; applied alone, rate 0.625 ppm) | Activity (%) ([1]; applied alone, rate 1.25 ppm) | Activity (%) ([1]; applied alone, rate 2.5 ppm)

CON(C(=O)c1cn(C)nc1C(F)F)C(C)Cc1c(Cl)cc(Cl)cc1Cl (centres unmarked) [(VI), 3-(difluoromethyl)-N-methoxy-1-methyl-N-[1-methyl-2-(2,4,6-trichlorophenyl)ethyl]-1H-pyrazole-4-carboxamide, reference compound]
70%: inhibition at 0.03125 ppm (Botrytis cinerea; Botrytis cinerea, alone, rate 0.03125 ppm, read-out: Activity (%)) | inhibition at 0.0625 ppm (Botrytis cinerea; Botrytis cinerea, alone, rate 0.0625 ppm, read-out: Activity (%))
20%: inhibition at 0.0078125 ppm (Botrytis cinerea; Botrytis cinerea, alone, rate 0.0078125 ppm)
0%: inhibition at 0.0625 ppm [1, 5]
50%: inhibition at 0.015625 ppm (Botrytis cinerea; Botrytis cinerea, alone, rate 0.015625 ppm) | inhibition at 0.125 ppm [1, 6]

CO/C=C(/C(=O)OC)c1ccccc1Oc1cc(Oc2ccccc2C#N)ncn1 [Azoxystrobin]
70%: Activity (%) ([1]; applied alone, rate 0.00625 ppm)
50%: Activity (%) ([1]; applied alone, 0.00625 ppm)
20%: Activity (%) (Botrytis cinerea; alone, rate 0.2 ppm) | Activity (%) (Botrytis cinerea; alone, rate 0.25 ppm) | Activity (%) ([1]; applied alone, rate 0.003125 ppm)
0%: Activity (%) (Botrytis cinerea; alone, rate 0.025 ppm) | Activity (%) (Botrytis cinerea; alone, rate 0.05 ppm) | Activity (%) (Botrytis cinerea; alone, rate 0.1 ppm) | Activity (%) (Botrytis cinerea; alone, rate 0.125 ppm) | Activity (%) ([1]; applied alone, rate 0.0015625 ppm)

COCCOCc1nc(C(F)(F)F)ccc1C(=O)C1=C(O)C2CCC(C2)C1=O (centres unmarked) [Bicyclopyrone]
0%: Activity (%) (Botrytis cinerea; alone, rate 1.25 ppm) | Activity (%) (Botrytis cinerea; alone, rate 2.5 ppm) | Activity (%) (Botrytis cinerea; alone, rate 5 ppm) | Activity (%) ([1]; applied alone, rate 0.078125 ppm) | Activity (%) [1, 7] | Activity (%) ([1]; applied alone, rate 0.3125 ppm)

COC(=O)Nc1nc2ccccc2[nH]1 [Carbendazim]
0%: inhibition at 0.015625 ppm ([1]; Monographella nivalis, applied alone, rate 0.015625 ppm) | inhibition at 0.03125 ppm ([1]; Monographella nivalis, applied alone, rate 0.03125 ppm) | inhibition at 0.0625 ppm ([1]; Monographella nivalis, applied alone, rate 0.0625 ppm)

N#Cc1c(Cl)c(Cl)c(Cl)c(C#N)c1Cl [Chlorotalonil]
20%: Activity (%) (Botrytis cinerea; alone, rate 0.25 ppm)
0%: Activity (%) (Botrytis cinerea; alone, rate 0.0625 ppm) | Activity (%) (Botrytis cinerea; alone, rate 0.125 ppm)

N#Cc1c(Cl)c(Cl)c(Cl)c(C#N)c1Cl [Chlorothalonil]
0%: inhibition at 0.03125 ppm ([1]; Monographella nivalis, applied alone, 0.03125 ppm)
20%: inhibition at 0.0625 ppm [1, 5]
70%: inhibition at 0.125 ppm [1, 6]

[Cu+2].[OH-].[OH-] [Copper hydroxide]
0%: Activity (%) (Botrytis cinerea; alone, rate 1.25 ppm) | Activity (%) (Botrytis cinerea; alone, rate 2.5 ppm) | Activity (%) (Botrytis cinerea; alone, rate 5 ppm) | Activity (%) [1, 7] | Activity (%) ([1]; applied alone, rate 0.3125 ppm) | Activity (%) ([1]; applied alone, rate 0.625 ppm) | Activity (%) ([1]; applied alone, rate 1.25 ppm) | Activity (%) ([1]; applied alone, rate 2.5 ppm) | Activity (%) ([1]; applied alone, rate 5 ppm)

CP(=O)(O)CCC(N)C(=O)O (centres unmarked) [Glufosinate]
0%: inhibition at 2.5 ppm (Botrytis cinerea; Botrytis cinerea, read-out: Activity (%), alone, rate 2.5 ppm) | inhibition at 5 ppm (Botrytis cinerea; Botrytis cinerea, read-out: Activity (%), alone, rate 5 ppm) | inhibition at 10 ppm (Botrytis cinerea; Botrytis cinerea, read-out: Activity (%), alone, rate 10 ppm) | inhibition at 20 ppm (Botrytis cinerea; Botrytis cinerea, read-out: Activity (%), alone, rate 20 ppm) | inhibition at 0.3125 ppm [1, 8] | inhibition at 0.625 ppm [1, 9] | inhibition at 1.25 ppm [1, 10] | inhibition at 2.5 ppm [1, 11] | inhibition at 5 ppm [1, 12]

[Mn+2].[O-2] [Manganese oxide]
0%: Activity (%) [1, 7] | Activity (%) ([1]; applied alone, rate 0.3125 ppm) | Activity (%) ([1]; applied alone, rate 0.625 ppm) | Activity (%) ([1]; applied alone, rate 1.25 ppm) | Activity (%) ([1]; applied alone, rate 2.5 ppm)

CS(=O)(=O)c1ccc(C(=O)C2C(=O)CCCC2=O)c([N+](=O)[O-])c1 [Mesotrione]
0%: inhibition at 0.625 ppm (Botrytis cinerea; Botrytis cinerea, alone) | inhibition at 1.25 ppm (Botrytis cinerea; [13]) | inhibition at 2.5 ppm (Botrytis cinerea; [14]) | inhibition at 5 ppm (Botrytis cinerea; Botrytis cinerea, alone, rate 5 ppm, read-out: Activity (%)) | inhibition at 10 ppm (Botrytis cinerea; Botrytis cinerea, alone, rate 10 ppm, read-out: Activity (%)) | inhibition at 2.5 ppm ([1]; Monographella nivalis, applied alone, 2.5 ppm) | inhibition at 5 ppm ([1]; Monographella nivalis, applied alone, 5 ppm) | inhibition at 0.078125 ppm ([1]; Monographella nivalis, applied alone, rate 0.078125 ppm) | inhibition at 0.15625 ppm ([1]; Monographella nivalis, applied alone, rate 0.15625 ppm) | inhibition at 0.3125 ppm [1, 8] | inhibition at 0.625 ppm [1, 9] | inhibition at 1.25 ppm [1, 10] | inhibition at 2.5 ppm [1, 11] | inhibition at 10 ppm ([1]; Monographella nivalis, single compound, rate 10 ppm) | inhibition at 20 ppm ([1]; Monographella nivalis, single compound, rate 20 ppm) | inhibition at 5 ppm [1, 12]

CC12CC1(C)C(=O)N(c1cc(Cl)cc(Cl)c1)C2=O (centres unmarked) [Procymidone]
50%: inhibition at 2.5 ppm (Botrytis cinerea; [14])
0%: inhibition at 1.25 ppm (Botrytis cinerea; [13]) | inhibition at 0.3125 ppm (Botrytis cinerea; Botrytis cinerea, single compound, rate 0.3125 ppm) | inhibition at 0.625 ppm (Botrytis cinerea; Botrytis cinerea, single compound) | inhibition at 1.25 ppm (Botrytis cinerea; Botrytis cinerea, single compound, rate 1.25 ppm)

CCN(C)/C=N/c1cc(Br)c(OC2Cc3ccc(C#N)cc3C2)nc1C (centres unmarked) [Q.376]
≥ 50%: pest or weed control at 200 ppm [2] | pest or weed control at 200 ppm (Pyrenophora teres) | pest or weed control at 200 ppm [3] | pest or weed control at 200 ppm [4]

CCN(C)/C=N/c1cc(Br)c(OC2Cc3cc(Cl)c(OC)cc3C2)nc1C (centres unmarked) [Q.378]
≥ 50%: pest or weed control at 200 ppm [2] | pest or weed control at 200 ppm (Pyrenophora teres) | pest or weed control at 200 ppm [3] | pest or weed control at 200 ppm [4]

CCN(C)/C=N/c1ccc(O[C@H]2CC[C@H](CC)CC2)nc1C [Q.380]
≥ 50%: pest or weed control at 200 ppm [2] | pest or weed control at 200 ppm (Pyrenophora teres) | pest or weed control at 200 ppm [3] | pest or weed control at 200 ppm [4]

CCN(C)/C=N/c1cc(Br)c(OC2CC(C)C(C)C2)nc1C (centres unmarked) [Q.382]
≥ 50%: pest or weed control at 200 ppm [2] | pest or weed control at 200 ppm (Pyrenophora teres) | pest or weed control at 200 ppm [3] | pest or weed control at 200 ppm [4]

CCN(C)/C=N/c1cc(I)c(OCc2ccccc2C)nc1C [Q.386]
≥ 50%: pest or weed control at 200 ppm [2] | pest or weed control at 200 ppm (Pyrenophora teres) | pest or weed control at 200 ppm [3] | pest or weed control at 200 ppm [4]

CCC(C)Oc1nc(C)c(/N=C/N(C)CC)cc1Br (centres unmarked) [Q.389]
≥ 50%: pest or weed control at 200 ppm [2] | pest or weed control at 200 ppm (Pyrenophora teres) | pest or weed control at 200 ppm [3] | pest or weed control at 200 ppm [4]

CCCCOc1nc(C)c(/N=C/N(C)CC)cc1Br [Q.390]
≥ 50%: pest or weed control at 200 ppm [2] | pest or weed control at 200 ppm (Pyrenophora teres) | pest or weed control at 200 ppm [3] | pest or weed control at 200 ppm [4]

CCN(C)/C=N/c1cc(Br)c(OCCC(C)C)nc1C [Q.391]
≥ 50%: pest or weed control at 200 ppm [2] | pest or weed control at 200 ppm (Pyrenophora teres) | pest or weed control at 200 ppm [3] | pest or weed control at 200 ppm [4]

CCN(C)/C=N/c1cc(Br)c(OC(C)CC(C)C)nc1C (centres unmarked) [Q.392]
≥ 50%: pest or weed control at 200 ppm [2] | pest or weed control at 200 ppm (Pyrenophora teres) | pest or weed control at 200 ppm [3] | pest or weed control at 200 ppm [4]

C=CCOc1nc(C)c(/N=C/N(C)CC)cc1Br [Q.393]
≥ 50%: pest or weed control at 200 ppm [2] | pest or weed control at 200 ppm (Pyrenophora teres) | pest or weed control at 200 ppm [3] | pest or weed control at 200 ppm [4]

C=CC(C)Oc1nc(C)c(/N=C/N(C)CC)cc1Br (centres unmarked) [Q.394]
≥ 50%: pest or weed control at 200 ppm [2] | pest or weed control at 200 ppm (Pyrenophora teres) | pest or weed control at 200 ppm [3] | pest or weed control at 200 ppm [4]

CCc1nc(OCc2ccccc2C)c(Br)cc1/N=C/N(C)CC [Q.398]
≥ 50%: pest or weed control at 200 ppm [2] | pest or weed control at 200 ppm (Pyrenophora teres) | pest or weed control at 200 ppm [3] | pest or weed control at 200 ppm [4]

C=C(C)c1nc(OCc2ccccc2C)c(Br)cc1/N=C/N(C)CC [Q.400]
≥ 50%: pest or weed control at 200 ppm [2] | pest or weed control at 200 ppm (Pyrenophora teres) | pest or weed control at 200 ppm [3] | pest or weed control at 200 ppm [4]

CON=C(C(=O)OC)c1ccccc1CON=C(C)c1cccc(C(F)(F)F)c1 [Trifloxystrobin]
0%: inhibition at 0.0125 ppm (Botrytis cinerea; Botrytis cinerea, alone, rate 0.0125 ppm)
20%: inhibition at 0.025 ppm (Botrytis cinerea; Botrytis cinerea, alone, rate 0.025 ppm)
50%: inhibition at 0.05 ppm (Botrytis cinerea; Botrytis cinerea, alone, rate 0.05 ppm) | inhibition at 0.1 ppm (Botrytis cinerea; Botrytis cinerea, alone, rate 0.1 ppm) | inhibition at 0.5 ppm (Botrytis cinerea; Botrytis cinerea, alone, rate 0.5 ppm) | inhibition at 1 ppm (Botrytis cinerea; Botrytis cinerea, alone, rate 1 ppm) | inhibition at 2 ppm (Botrytis cinerea; Botrytis cinerea, alone, rate 2 ppm)
